{
  "source": "paper PMC7004151",
  "about": "“Synthesis and Structure‐Activity Relationships of N‐(4‐Benzamidino)‐Oxazolidinones: Potent and Selective Inhibitors of Kallikrein‐Related Peptidase 6” (Chemmedchem, 2019)",
  "key": {"Human thrombin": {"molecular_target": "T1, Human thrombin (Homo sapiens, UniProt P00734)", "T1 construct": "Human thrombin was purchased from Biopur; purchased Biopur", "assay": "Thrombin enzyme inhibition assay", "format": "biochemical", "conditions": "read-out: Thrombin pIC50 (converted)", "description": "Human thrombin was purchased from Biopur. Human trypsin was purchased from Polymun Scientific. Human Factor Xa was purchased from Enzo Life Sciences. Thrombin (20 nM), trypsin (0.000015 %) or Factor Xa (10 nM) were assayed in a similar manner to the KLKs but were incubated with compound for 20 min at room temperature in assay buffer (50 mM Tris HCl, pH 7.6, 100 mM NaCl, 1 mg/ml CHAPS, 0.05 % bovine serum albumin (BSA), 1 mM dithiothreitol (DTT)) before the addition of 5 μM, 2.5 μM or 1.5 μM Rhodamine 110 substrate (Cambridge bioscience ltd) respectively. Fluorescence intensity was then read at ex/em 485/535 following incubation for 1 h at room temperature (thrombin and factor Xa) or 20 min (trypsin)."}, "Plasma stability assay": {"assay": "Plasma stability assay", "format": "in vitro ADME, mouse", "description": "Plasma stability assay: Test compound (10 μM) was incubated in pre‐warmed plasma at 37 °C (that is buffered to pH 7.4 in ratio of 70 : 30 plasma to buffer). Immediately, at time zero, then at 30, 60, 120, and 180 min, a 50 μL aliquot of the incubation mixture was removed and mixed with 200 μL acetonitrile containing Donepezil as the internal standard (50 ng/mL) to stop the reaction. The samples were centrifuged to sediment the precipitated protein and the plates then sealed prior to UPLC‐MS/MS analysis using a Quattro Premier XE (Waters Corporation, USA). XLfit (IDBS, UK) was used to calculate the exponential decay and consequently the rate constant (k) from the ratio of peak area of test compound to internal standard at each time point. The half‐life was calculated for each test compound from the rate by using the following calculation: t1/2=0.693/k"}, "HCT116 cells": {"test_system": "HCT116 cells", "assay": "HCT116 Matrigel invasion assay", "format": "cell-based", "conditions": "after 24 h; 9 at multiple concentrations; 32 at 50 nM and 500 nM", "description": "Figure 5 HCT116 cells were treated with 9 or 32 at the indicated concentrations and plated on Matrigel®‐coated filters. The upper chamber contained serum‐free medium, while the lower chamber contained 10 % fetal bovine serum. After 24 h, the number of invading cells was measured optically. (A) This figure is one representative example of four biological replicates, each with similar outcomes. Error bars are SEM. Technical replicates: DMSO and 9 at 5 nM (n=3); 9 at 50 and 500 nM and 32 at all concentrations (n=6). Statistical significance was calculated using an unpaired two‐tailed t‐test. n.s=p≥0.05; **=p<0.01; ***=p<0.001. (B) Representative images (Scale bar, […]) of stained invaded cells outside of the inserts 24 h hours after treatment with 9, 32, or DMSO solvent control at the indicated concentrations. Phase contrast images were taken with EVOS FL Cell imagine system FL Auto microscope (Bio‐Rad).\nInvasion assay: The HCT116 colorectal adenocarcinoma cell line (ATCC® CCL‐247™) was maintained in Dulbecco's Modified Eagle Medium (DMEM) with […] glucose, L‐glutamine w/o sodium pyruvate, supplemented with 10 % FBS and 1 % penicillin/streptomycin. […] The samples were transferred to a new 96 well plate and read at 560 nm on a Synergy 2 Multi‐Detection Microplate Reader (Bio‐Tek Instruments, Inc., Winooski, VT)."}, "Thermodynamic solubility": {"assay": "Thermodynamic solubility", "format": "physicochemical", "conditions": "thermodynamic from solid, Milli-Q water, 37 °C", "description": "Thermodynamic solubility: Test compound (3 mg) is accurately weighed into a Micronics tube. Extra tubes for each control compound, Warfarin (high solubility control) and Cinnarizine (low solubility control) were also accurately weighed. To each tube is added 1 mL of Milli‐Q water. All samples are vortexed for 20 s and placed in a bench top incubator shaker set at 1300 rpm at 37 °C for 5 h. After the incubation, samples are centrifuged at 10,000 rpm for 3 min. 100 μL aliquots of the supernatant in duplicate were placed in a 96‐well plate. All samples, calibration standards and QC samples are analyzed using a validated HPLC method on the Dionex Ultramate 3000 HPLC system. The concentration determined from the supernatant was then reported as the solubility of each compound in μg/mL."}, "[1]": {"assay": "Hepatocytes intrinsic clearance", "format": "in vitro ADME", "description": "Hepatocytes Intrinsic clearance (CLint) assay: Cryopreserved vials of mouse cryopreserved hepatocytes, supplied by Life Technologies, were thawed according to manufacturer's instructions and cells re‐suspended in Williams Medium E (WME) containing cell maintenance supplement pack (CM4000, Life Technologies). Hepatocytes were incubated in suspension (0.5x10^6 cells/mL) in 48 well non‐collagen coated cell culture plates for 10 min at 37 °C, 95 % O2 5 % CO2. Upon addition of an equal volume of supplemented WME containing 1 μM test compound, an aliquot of incubation solution was removed to acetonitrile containing internal standard (final concentration 0.5 μM test compound and a cell density of 0.25×10^6 cells/mL). Similarly, aliquots were removed at 3, 6, 9, 15, 30, 45, 60, 90 and 120 min. 100 μL of 80 : 20 H2O/MeCN was added to all samples and the analysis plate was centrifuged for 10 min at room temperature prior to injection and analysis of samples by UPLC‐MS/MS. The response (area ratio of test compound to internal standard) was plotted against time using an exponential decay model and rate of disappearance calculated. Hepatocyte CLint (mL/min/10^6 cells) was scaled to in vivo CLint (mL/min/g liver) using the hepatocellularity scaling factor of 120×10^6 cells/g of liver."}},
  "data": [
    {"smiles": "CC[C@H](NC(=O)[C@H]1CN(c2ccc(C(=N)N)cc2)C(=O)O1)c1cccc2ccccc12", "note": "[Compound 32, (5R)‐3‐(4‐carbamimidoylphenyl)‐N‐((S)‐1‐(naphthalen‐1‐yl)propyl)‐2‐oxooxazolidine‐5‐carboxamide]", "values": [
      {"measurement": "IC50", "setting": "Human thrombin", "value": "> 20", "unit": "µM"},
      {"measurement": "stability in mouse plasma", "setting": "Plasma stability assay; over 3 h", "value": "no instability"},
      {"measurement": "half-life at 10 μM", "setting": "Plasma stability assay; pH 7.4, mouse plasma, 37 °C, read-out: Mouse Plasma Stability (t1/2)", "value": "> 3", "unit": "h"},
      {"measurement": "invasion of HCT116 cells", "setting": "HCT116 cells", "value": "significant reduction in invasion"},
      {"measurement": "solubility thermodynamic at 5 h", "setting": "Thermodynamic solubility", "value": 2300, "unit": "µM"},
      {"measurement": "Mouse Hep Cl", "setting": "[1]", "value": 2.3, "unit": "mL/min/g"}
    ]}
  ]
}
